Like-named read-outs stand apart in the source and are kept apart here.
Legend:
Assay type in all cases: biochemical
[1] = molecular target: T1, wt-FLT3 (Homo sapiens, UniProt P36888); experiment: FLT3 WT Kinase-Glo assay
T1 construct: FLT3 kinase catalytic domain (residues Y567˜S993); made in house; host or cells: Sf9 insect cells (baculovirus, pBac-PAK8-GST-FLT3-KD plasmid)
T1 sequence (P36888 567-993): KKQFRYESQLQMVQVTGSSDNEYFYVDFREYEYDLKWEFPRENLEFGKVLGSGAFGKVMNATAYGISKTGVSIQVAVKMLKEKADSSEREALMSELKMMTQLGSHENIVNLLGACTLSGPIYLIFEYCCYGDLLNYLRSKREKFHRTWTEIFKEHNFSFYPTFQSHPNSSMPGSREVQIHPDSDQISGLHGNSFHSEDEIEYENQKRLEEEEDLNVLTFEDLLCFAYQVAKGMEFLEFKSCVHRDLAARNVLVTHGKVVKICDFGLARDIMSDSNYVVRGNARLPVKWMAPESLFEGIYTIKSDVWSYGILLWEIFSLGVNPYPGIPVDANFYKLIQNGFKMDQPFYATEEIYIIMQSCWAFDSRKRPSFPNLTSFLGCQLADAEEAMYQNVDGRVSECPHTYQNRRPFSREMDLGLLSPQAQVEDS
In short: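 GST-tagged wild-type FLT3 kinase domain (residues Y567–S993), expressed in Sf9 cells, was used. After the kinase reaction, remaining ATP was detected by Kinase-Glo Plus luminescence following 20 min at 25 °C.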

[2] = molecular target: T2, VEGFR1 (Homo sapiens, UniProt P17948); experiment: VEGFR1 Kinase-Glo kinase assay
T2 construct: GST-VEGFR1 (residues R781-I1338); GST (N); made in house; host or cells: Sf9 insect cells
T2 sequence (P17948 781-1338): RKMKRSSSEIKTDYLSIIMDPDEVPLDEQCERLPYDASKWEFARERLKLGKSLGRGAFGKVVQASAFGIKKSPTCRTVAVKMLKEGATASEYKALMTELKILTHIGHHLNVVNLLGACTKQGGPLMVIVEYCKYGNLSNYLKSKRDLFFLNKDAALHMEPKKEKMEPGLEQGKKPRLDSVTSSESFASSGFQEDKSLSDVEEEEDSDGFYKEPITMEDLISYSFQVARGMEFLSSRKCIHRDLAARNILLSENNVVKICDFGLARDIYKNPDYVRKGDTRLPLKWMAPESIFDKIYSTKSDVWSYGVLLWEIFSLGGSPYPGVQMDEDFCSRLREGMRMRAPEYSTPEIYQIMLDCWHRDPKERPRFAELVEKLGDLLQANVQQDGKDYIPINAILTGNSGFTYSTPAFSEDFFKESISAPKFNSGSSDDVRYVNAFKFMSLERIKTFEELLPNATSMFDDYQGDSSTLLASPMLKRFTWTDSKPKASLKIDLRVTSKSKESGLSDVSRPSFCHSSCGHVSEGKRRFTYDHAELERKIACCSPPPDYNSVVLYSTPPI

[3] = molecular target: T3, VEGFR2 (Homo sapiens, UniProt P35968); experiment: VEGFR2 Kinase-Glo kinase assay
T3 construct: GST-VEGFR2 (residues V789-V1356); GST (N); made in house; host or cells: Sf9 insect cells
T3 sequence (P35968 789-1356): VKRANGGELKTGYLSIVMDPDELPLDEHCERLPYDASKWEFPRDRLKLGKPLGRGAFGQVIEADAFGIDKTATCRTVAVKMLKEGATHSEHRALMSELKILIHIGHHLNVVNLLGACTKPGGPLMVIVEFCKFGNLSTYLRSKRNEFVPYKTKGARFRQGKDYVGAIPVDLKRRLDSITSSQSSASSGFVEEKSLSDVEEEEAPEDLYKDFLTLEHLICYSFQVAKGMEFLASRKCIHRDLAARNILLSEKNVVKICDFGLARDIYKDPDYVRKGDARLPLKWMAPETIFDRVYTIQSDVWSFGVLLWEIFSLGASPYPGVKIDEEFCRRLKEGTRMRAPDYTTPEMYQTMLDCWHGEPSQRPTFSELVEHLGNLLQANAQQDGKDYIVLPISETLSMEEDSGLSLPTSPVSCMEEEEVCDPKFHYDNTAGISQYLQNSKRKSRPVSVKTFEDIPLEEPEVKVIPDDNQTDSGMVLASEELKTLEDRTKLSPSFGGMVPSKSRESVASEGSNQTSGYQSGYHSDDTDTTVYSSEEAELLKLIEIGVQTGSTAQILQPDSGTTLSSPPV

[4] = molecular target: T4, Aurora A (Homo sapiens, UniProt O14965); experiment: Aurora kinase A Kinase-Glo kinase assay
T4 construct: GST-Aurora A (residues S123-S401); GST (N); made in house; host or cells: Sf9 insect cells
T4 sequence (O14965 123-401): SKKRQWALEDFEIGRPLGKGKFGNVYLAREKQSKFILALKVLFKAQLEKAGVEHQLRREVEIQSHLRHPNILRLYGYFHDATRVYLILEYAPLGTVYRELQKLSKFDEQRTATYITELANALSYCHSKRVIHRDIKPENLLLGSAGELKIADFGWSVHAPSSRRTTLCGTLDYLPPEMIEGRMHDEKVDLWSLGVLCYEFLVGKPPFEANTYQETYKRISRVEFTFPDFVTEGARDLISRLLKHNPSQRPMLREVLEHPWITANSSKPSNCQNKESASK
Description: The recombinant GST-Aurora A (residues S123-S401) containing kinase domain were expressed in Sf9 insect cells. The kinase assay were carried out in 96-well plates with tested compound in a final volume of 50 μl reaction at 37° C. for 90 minutes with following components: 50 mM Tris-HCl pH 7.4, 10 mM NaCl, 10 mM MgCl2, 0.01% BSA, 5 μM ATP, 1 mM DTT and 15 μM tetra(LRRASLG) peptide, and 150 ng recombinant Aurora A. Following incubation, 50 μl Kinase-Glo Plus Reagent (Promega, Madison, Wis., USA) was added to each well and the mixture was incubated at 25° C. for 20 min. A 70-μL aliquot of each reaction mixture was transferred to a black microtiter plate and the luminescence was measured on Wallac Vector 1420 multilabel counter (PerkinElmer, Shelton, Conn., USA).

[5] = FLT3 WT Kinase-Glo, 1 μM ATP, read-out: IC50
[6] = table of representative values, read-out: IC50 (nM) wt-FLT3
[7] = VEGFR1 assay, 1 μM ATP, bound in nM, read-out: IC50
[8] = VEGFR1 assay, 1 μM ATP, bound in μM, read-out: IC50
[9] = table of representative values, read-out: IC50 (nM) VEGFR1
[10] = VEGFR2 assay, 1 μM ATP, bound in μM, read-out: IC50
[11] = VEGFR2 assay, 1 μM ATP, ranges in nM, read-out: IC50
[12] = table of representative values, read-out: IC50 (nM) VEGFR2
[13] = Aurora A assay, 5 μM ATP, bound in nM, read-out: IC50
[14] = Aurora A assay, 5 μM ATP, bound in μM, read-out: IC50
[15] = table of representative values, read-out: IC50 (nM) Aurora A

IC50 [1, 5] [nM]	IC50 [1, 6] [nM]	IC50 [2, 7] [nM]	IC50 [2, 8] [nM]	IC50 [2, 9] [nM]	IC50 [3, 10] [µM]	IC50 [3, 11] [µM]	IC50 [3, 12] [µM]	IC50 [4, 13] [nM]	IC50 [4, 14] [nM]	IC50 [4, 15] [nM]	SMILES
1 to 20	15	< 100	< 1000	20	< 1	0.001 to 0.055	0.025	< 200	< 1000	32	CCc1cc(NC(=O)Nc2ccc(-c3cnc(Nc4cc(N5CCN(CC)CC5)nc(C)n4)s3)cc2)no1 [Compound 112, N-(5-ethyl-3-isoxazolyl)-N′-[4-(2-[6-(4-ethylpiperazino)-2-methyl-4-pyrimidinyl]amino-1,3-thiazol-5-yl)phenyl]urea]
1 to 20	14	< 100	< 1000	63	< 1	0.001 to 0.055	0.007	< 200	< 1000	38	CCc1cc(NC(=O)Nc2ccc(-c3cnc(Nc4cc(N5CCC(N)C5)nc(C)n4)s3)cc2)no1 (stereo not shown) [Compound 119, N-[4-(2-[6-(3-aminotetrahydro-1H-1-pyrrolyl)-2-methyl-4-pyrimidinyl]amino-1,3-thiazol-5-yl)phenyl]N′-(5-ethyl-3-isoxazolyl)urea]
